Columns and labels:
[1] = Encapsulation efficiency of lipid nanoparticles (Quant-it Ribogreen RNA assay); assay type: physicochemical; conditions: LNP of cationic lipid/DSPC/cholesterol/PEG-lipid 50:10:38.5:1.5 with mRNA
Procedure: (§1) Briefly, a cationic lipid provided herein, DSPC, cholesterol, and PEG-lipid were solubilized in ethanol at a molar ratio of 50:10:38.5:1.5, and mRNA were diluted in 10 to 50 mM citrate buffer, pH=4. The LNPs were prepared at a total lipid to mRNA weight ratio of approximately 10:1 to 30:1 by mixing the ethanolic lipid solution with the aqueous mRNA solution at a volume ratio of 1:3 using a microfluidic apparatus, total flow rate ranging from 9-30 mL/min. Ethanol were thereby removed and replaced by DPBS using dialysis. Finally, the lipid nanoparticles were filtered through a 0.2 μm sterile filter.
(§2) Lipid nanoparticle size were determined by dynamic light scattering using a Malvern Zetasizer Nano ZS (Malvern UK) using a 173° backscatter detection mode. The encapsulation efficiency of lipid nanoparticles were determined using a Quant-it Ribogreen RNA quantification assay kit (Thermo Fisher Scientific, UK) according to the manufacturer's instructions.

[2] = Apparent pKa of LNP formulations by TNS fluorescence assay; conditions: LNP cationic lipid/DSPC/cholesterol/DMG-PEG 50/10/38.5/1.5 mol %, pH 3 to 9
Procedure: TNS was prepared as a 300 uM stock solution in distilled water. LNP formulations were diluted to 0.1 mg/ml total lipid in 3 mL of buffered solutions containing 50 mM sodium citrate, 50 mM sodium phosphate, 50 mM sodium borate, and 30 mM sodium chloride where the pH ranged from 3 to 9. An aliquot of the TNS solution was added to give a final concentration of 0.1 mg/ml and following vortex mixing fluorescence intensity was measured at room temperature in a Molecular Devices Spectramax iD3 spectrometer using excitation and mission wavelengths of 325 nm and 435 nm. A sigmoidal best fit analysis was applied to the fluorescence data and the pKa value was measured as the pH giving rise to half—maximal fluorescent intensity.

[3] = Lipid nanoparticle size and polydispersity by dynamic light scattering; assay type: physicochemical; conditions: LNP of cationic lipid/DSPC/cholesterol/PEG-lipid 50:10:38.5:1.5 with mRNA
Procedure: as §1, §2

SMILES | Encapsulation Efficiency [1] | Apparant Pka [2] | polydispersity [3] | size (nm) [3]
CCCCCCCCC(CCCCCC)COP(=O)(NCCN(C)CCO)OCC(CCCCCC)CCCCCCCC (stereo not shown) [Compound 46] | 99.0% | 6.85 | 0.114 | 54.72 nm
CCCCCCCCCOC(=O)CCCCCOP(=O)(NCCN(C)C)OCCCCCC(=O)OCCCCCCCCC [Compound 5] | 88.8% | 7.26 | 0.194 | 94.66 nm
CCCCCCCCC(CC)COP(=O)(NCCN(CC)CC)OCC(CC)CCCCCCCC (stereo not shown) [Compound 67] | 93.3% | 7.195 | 0.116 | 86.9 nm
CCCCCCCCCCCCCOP(=O)(NCCCN1CCCCC1)OCCCCCCCC(=O)OC(CCCCCCCC)CCCCCCCC (stereo not shown) [Compound 35] | 99.9% | 9.42 | 0.245 | 62.7 nm
CCCCCCC(CCCCCC)COP(=O)(NCCN(CC)CC)OCC(CCCCCC)CCCCCC [Compound 65] | 94.1% | 6.133 | 0.085 | 95.97 nm
CCCCCCCCCCC(CCCCCCCC)COP(=O)(NCCN1CCCC1)OCC(CCCCCCCC)CCCCCCCCCC (stereo not shown) [Compound 79] | 96.3% | 6.457 | 0.053 | 71.16 nm
CCCCCCCCCCCCCOP(=O)(NCCN1CCCCC1)OCCCCCCCC(=O)OC(CCCCCCCC)CCCCCCCC (stereo not shown) [Compound 34] | 98.4% | 7.45 | 0.258 | 58.48 nm
CCCCCCCCCCCCCOP(=O)(NCCN1CCCCC1)OCCCCCCCCCCCCC [Compound 13] | 96.5% | 7.79 | 0.034 | 130.5 nm
CCCCCCCCC(CCCCCC)COP(=O)(NCCN1CCCCC1)OCC(CCCCCC)CCCCCCCC (stereo not shown) [Compound 26] | 93.6% | 4.99 | 0.27 | 68.19 nm
CCCCCCCCC(CCCCCC)COP(=O)(NCCN(CCO)CCCCC)OCC(CCCCCC)CCCCCCCC (stereo not shown) [Compound 55] | 90.9% | 5.615 | 0.132 | 62.03 nm
CCCCCCCCC(CCCCCC)COP(=O)(NCCN(CCO)CCCC)OCC(CCCCCC)CCCCCCCC (stereo not shown) [Compound 54] | 88.8% | 5.644 | 0.037 | 138.5 nm
CCCCCCCCCCCCCOP(=O)(NCCCN(C)C)OCCCCCCCC(=O)OC(CCCCCCCC)CCCCCCCC (stereo not shown) [Compound 39] | 100.0% | 6.52 | 0.408 | 69.38 nm
CCCCCCCCCOP(=O)(NCCCCN(C)C)OCCCCCCCCC [Compound 1] | 90.3% | 7.65 | 0.074 | 54.18 nm
CCCCCCCCC(CCCCCC)COP(=O)(NCCN(CCC)CCO)OCC(CCCCCC)CCCCCCCC (stereo not shown) [Compound 53] | 95.1% | 5.679 | 0.329 | 90.86 nm
CCCCCCCCCCCCCOP(=O)(NCCN1CCC1)OCCCCCCCC(=O)OC(CCCCCCCC)CCCCCCCC (stereo not shown) [Compound 41] | 101.1% | 7.70 | 0.306 | 50.64 nm
CCCCCCCCC(CCCCCC)COP(=O)(NCCN(CCO)CCCCCC)OCC(CCCCCC)CCCCCCCC (stereo not shown) [Compound 56] | 92.5% | 5.253 | 0.264 | 139.3 nm
CCCCCCCCC(CCCCCC)COP(=O)(NCCN(C)C)OCC(CCCCCC)CCCCCCCC (stereo not shown) [Compound 21] | 70.2% | 4.79 | 0.105 | 80.66 nm
CCCCCCCC(CCCCCCC)COP(=O)(NCCN(CC)CC)OCC(CCCCCCC)CCCCCCC [Compound 84] | 89.9% | 5.484 | 0.175 | 52.13 nm
CCCCCCCCC(CCCCCCCC)COP(=O)(NCCN(CC)CC)OCC(CCCCCC)CCCCCC (stereo not shown) [Compound 90] | 85.7% | 5.526 | 0.242 | 56.48 nm
CCCCCCCCCCCCCOP(=O)(OCCCCCCCCCCCCC)N1CCC(N(C)C)CC1 [Compound 18] | 94.3% | 6.16 | 0.074 | 159.2 nm
CCCCCCCCC(CCCCCC)COP(=O)(NCCN1CC2CC2C1)OCC(CCCCCC)CCCCCCCC (stereo not shown) [Compound 62] | 89.9% | 5.063 | 0.338 | 56.35 nm
CC/C=C\CCC(CC/C=C\CC)COP(=O)(NCCN(CC)CC)OCC(CC/C=C\CC)CC/C=C\CC [Compound 88] | 49.0% | 6.571 | 0.205 | 179.7 nm
CCCCCCCCCOC(=O)CCCCCOP(=O)(NCCCN(C)C)OCCCCCC(=O)OCCCCCCCCC [Compound 6] | 88.3% | 7.33 | 0.262 | 111.7 nm
CCCCCCCCC(CCCC)COP(=O)(NCCN(CC)CC)OCC(CCCC)CCCCCCCC (stereo not shown) [Compound 75] | 92.1% | 6.603 | 0.023 | 138.2 nm
CCCCCCCCC(CCCCCC)COP(=O)(NCCN(CCCC)CCCC)OCC(CCCCCC)CCCCCCCC (stereo not shown) [Compound 51] | 75.52% | 6.66 | 0.167 | 88.45 nm

— US20220331414A1, “LIPID COMPOUNDS AND LIPID NANOPARTICLE COMPOSITIONS” (Suzhou Abogen Biosciences Co., Ltd., priority 2020, published 2022)
